Experimental data published in publication PMC5349880, “P-glycoprotein-mediated chemoresistance is reversed by carbonic anhydrase XII inhibitors” (Oncotarget, 2016).
Structures can show the parent of a compound that is named as a salt. One block for each compound: values may come before it.

Columns and labels:
[1] = system: Pgp; test: Pgp ATPase activity on Pgp-rich vesicles; type: cell-based; conditions: for reduction of Pgp ATPase activity: cells grown 24 h with 5 nM compound
Experimental: Pancadherin level was used as control of equal protein loading. no Ab: A549/DX sample immunoprecipitated without antibody. […] Data are presented as means ± SD (n = 3).
The assay was performed on Pgp-enriched membrane vesicles as detailed in [39]. Verapamil (10 μM) was added to the reaction mix to achieve a maximal activation of the Pgp ATPase activity. Results were expressed as nmol hydrolyzed phosphate (Pi)/min/mg proteins, according to the titration curve previously prepared.

[2] = system: drug-sensitive and drug-resistant cancer cells; test: Cell viability (neutral red), whole panel of cancer cell lines; conditions: read-out: IC50 of tariquidar alone
[3] = system: human CA XII; test: CA inhibition, stopped-flow CO2 hydration; type: biochemical; conditions: ratio of Kis
Experimental: Saturated CO2 solutions in water at 20°C were used as substrate, while the recombinant CA protein was prepared in Hepes buffer (10 mM, pH 7.5) with added NaClO4 (0.1 M) to maintain a constant the ionic strength. […] The inhibition constants were obtained by nonlinear least-squares methods using PRISM 3. The curve fitting algorithm allowed us to obtain the IC50 values, from which Ki values were calculated by using the Cheng-Prusoff equation.

[4] = molecular target: human CA I; design: method as in PMID 21851094, PMID 19827837, PMID 21314129; conditions: recombinant CA, errors ± 5%, three determinations; cited from earlier work
[5] = molecular target: human CA II; design: method as in PMID 21851094, PMID 19827837, PMID 21314129; conditions: recombinant CA, errors ± 5%, three determinations; cited from earlier work
[6] = molecular target: human CA IX; design: method as in PMID 21851094, PMID 19827837, PMID 21314129; conditions: recombinant CA, errors ± 5%, three determinations; cited from earlier work
[7] = molecular target: human CA XII; design: method as in PMID 21851094, PMID 19827837, PMID 21314129; conditions: recombinant CA, errors ± 5%, three determinations; cited from earlier work
[8] = system: HT29/DX cells; test: Cell viability (neutral red); type: cell-based, human; conditions: HT29/DX cells; compound alone, 5 nM
[9] = system: A549 cells; test: Cell viability (neutral red); type: cell-based, human; conditions: A549 cells; compound alone, 5 nM
[10] = system: A549/DX cells; test: Cell viability (neutral red); type: cell-based, human; conditions: A549/DX cells; compound alone, 5 nM
[11] = system: T74D cells; test: Cell viability (neutral red); type: cell-based, human; conditions: T74D cells; compound alone, 5 nM
[12] = system: MDA-MB-231 cells; test: Cell viability (neutral red); type: cell-based, human; conditions: MDA-MB-231 cells; compound alone, 5 nM
[13] = system: TUBO cells; test: Cell viability (neutral red); type: cell-based, murine; conditions: TUBO cells; compound alone, 5 nM
[14] = system: JC cells; test: Cell viability (neutral red); type: cell-based, murine; conditions: JC cells; compound alone, 5 nM
[15] = system: U2OS/DX cells; test: Cell viability (neutral red); type: cell-based, human; conditions: U2OS/DX cells; compound alone, 5 nM
[16] = system: SaOS/DX cells; test: Cell viability (neutral red); type: cell-based, human; conditions: SaOS/DX cells; compound alone, 5 nM
[17] = system: CCD-Co-18 cells, BEAS-2B cells, MCF10A cells, fibroblasts; test: Cell viability (neutral red) of not-transformed cells; type: cell-based, human; conditions: 5 nM, 72 h; no detectable CAXII
Excerpt: Supplementary Figure S4: Effects of compounds 1, 2 and 4 on not-transformed cells. (A) Not-transformed human epithelial colon CCD-Co-18 cells, epithelial lung BEAS-2B cells, epithelial breast MCF10A cells, fibroblasts (fibro) were lysed and immunoblotted for CAXII and CAIX. A549/DX cells were used as control of CAXII- and CAIX-positive cells. β-tubulin level was used as control of equal protein loading. The figure is representative of one out of three experiments with similar results. (B) Cells were grown for 72 h in fresh medium (–), or in medium containing 5 nM compounds 1, 2 and 4, then stained with neutral red dye. The absorbance of viable cells was measured spectrophotometrically. Data are presented as means ± SD (n = 4).

[18] = system: ca12 KO HT29/DX, A549/DX, MDA-MB-231 and U2OS/DX cells; test: Intracellular doxorubicin accumulation in ca12 knocked-out cells; type: cell-based, human
Experimental: Data are presented as means ± SD (n = 4). […] The absorbance of viable cells was measured spectrophotometrically. Data are presented as means ± SD (n = 4).
Doxorubicin content was measured fluorimetrically as detailed previously by us. […] Cells were washed twice with PBS, detached with trypsin and sonicated. The intracellular drug content was measured by liquid scintillation. The results were expressed as nmol drug/mg cell proteins, according to titration curves previously set.
5 × 10^5 cells were transduced with 1 μg RNA vector (CRISPR pCas guide vector) ca12 or 1 μg not-targeting vector, mixed with 1 μg donor DNA vector (Origene, Rockville, MD), following the manufacturer's instructions. Stable KO cells were selected in complete medium containing 1 μg/ml puromycin for three weeks. Knockout efficacy was evaluated by immunoblotting, as reported above.

[19] = Plasma stability (mouse); type: in vitro ADME; conditions: read-out: mouse plasma stability t1/2 (converted)
Experimental: (§1) Plasma stability (mouse) and liver microsome metabolic stability (mouse) were measured by the Biopharmacy Laboratory, Shanghai Institute of Materia Medica, Chinese Academy of Sciences.

[20] = Liver microsome metabolic stability (mouse); type: in vitro ADME; conditions: mouse liver microsomes; read-out: mouse liver microsome stability t1/2
Experimental: as §1

[21] = Hematochemical parameters of tumor-bearing animals
[22] = system: JC cells; test: In vivo tumor growth, JC breast tumor model; conditions: for reduction in tumor volume at day 18: co-administered with 5 mg/kg doxorubicin i.v.
Experimental: Data are presented as means ± SD.
Tumor growth was measured daily by caliper and calculated according to the equation (L × W^2)/2, where L = tumor length, W = tumor width.

[23] = C1 19 ng/kg intratumorally alone
[24] = C1 1900 ng/kg intratumorally alone
[25] = dox 5 mg/kg i.v. + C1 19 ng/kg intratumorally
[26] = dox 5 mg/kg i.v. + C1 1900 ng/kg intratumorally

effect on Pgp ATPase activity ([1]; tariquidar 25 nM added during the assay): strongly decreased ATPase activity
IC50 [2]: > 10000 nM
Structure (SMILES): COc1cc2c(cc1OC)CN(CCc1ccc(NC(=O)c3cc(OC)c(OC)cc3NC(=O)c3cnc4ccccc4c3)cc1)CC2 [tariquidar, Tariquidar dihydrochloride, reference compound]

Structure (SMILES): NS(=O)(=O)c1ccc(CNS(=O)(=O)[C@@H]2O[C@H](CO)[C@@H](O[C@H]3O[C@H](CO)[C@H](O)[C@H](O)[C@H]3O)[C@H](O)[C@H]2O)cc1 [Compound 7]
CAXII Isozyme Selectivity CA I/XII [3]: 12.0
CAXII Isozyme Selectivity CA IX/XII [3]: 11.9
CAXII Isozyme Selectivity CAII/ XII [3]: 0.6
Ki [4]: 107 nM
Ki [5]: 5 nM
Ki [6]: 106 nM
Ki [7]: 8.9 nM

Structure (SMILES): NS(=O)(=O)OC[C@H]1OC(O)[C@H](O)[C@@H](O)[C@@H]1O (stereo partly drawn) [Compound 2]
reduction in viability for individual compounds [8]: ≤ 31 ± 6%
reduction in viability for individual compounds [9]: ≤ 28 ± 10%
reduction in viability for individual compounds [10]: ≤ 38 ± 7%
reduction in viability for individual compounds [11]: ≤ 33 ± 12%
reduction in viability for individual compounds [12]: ≤ 36 ± 11%
reduction in viability for individual compounds [13]: ≤ 28 ± 7%
reduction in viability for individual compounds [14]: ≤ 30 ± 10%
reduction in viability for individual compounds [15]: ≤ 27 ± 8%
reduction in viability for individual compounds [16]: ≤ 32 ± 7%
cytotoxic effect in not-transformed cells [17]: did not exert any cytotoxic effect
reduction of Pgp ATPase activity [1]: ≥ 1.47 fold
effect on doxorubicin intracellular accumulation [18]: lost the ability to further increase the doxorubicin intracellular accumulation
Ki [6]: 8.6 nM

Structure (SMILES): NS(=O)(=O)c1ccc(CNS(=O)(=O)[C@@H]2O[C@H](CO)[C@@H](O[C@H]3O[C@H](CO)[C@@H](O)[C@H](O)[C@H]3O)[C@H](O)[C@H]2O)cc1 [Compound 8]
CAXII Isozyme Selectivity CA I/XII [3]: 12.3
CAXII Isozyme Selectivity CA IX/XII [3]: 12.0
CAXII Isozyme Selectivity CAII/ XII [3]: 0.6
Ki [4]: 101 nM
Ki [5]: 4.8 nM
Ki [6]: 98 nM
Ki [7]: 8.2 nM

Structure (SMILES): NS(=O)(=O)OC[C@H]1OC(O)[C@H](O)[C@@H](O)[C@H]1O (stereo partly drawn) [Compound 4]
reduction in viability for individual compounds [8]: ≤ 31 ± 6%
reduction in viability for individual compounds [9]: ≤ 28 ± 10%
reduction in viability for individual compounds [10]: ≤ 38 ± 7%
reduction in viability for individual compounds [11]: ≤ 33 ± 12%
reduction in viability for individual compounds [12]: ≤ 36 ± 11%
reduction in viability for individual compounds [13]: ≤ 28 ± 7%
reduction in viability for individual compounds [14]: ≤ 30 ± 10%
reduction in viability for individual compounds [15]: ≤ 27 ± 8%
reduction in viability for individual compounds [16]: ≤ 32 ± 7%
cytotoxic effect in not-transformed cells [17]: did not exert any cytotoxic effect
reduction of Pgp ATPase activity [1]: ≥ 1.47 fold
effect on doxorubicin intracellular accumulation [18]: lost the ability to further increase the doxorubicin intracellular accumulation
Ki [6]: 62 nM

half-life [19]: 0.7 h
half-life [20]: 2.25 h
AP [21, 23]: 91 ± 13 U/l
CPK [21, 23]: 271 ± 84 U/l
Creatinine [21, 23]: 0.021 ± 0.011 mg/L
LDH [21, 23]: 6723 ± 1023 U/l
AP [21, 24]: 83 ± 11 U/l
CPK [21, 24]: 312 ± 81 U/l
Creatinine [21, 24]: 0.033 ± 0.008 mg/L
LDH [21, 24]: 6729 ± 835 U/l
AP [21, 25]: 79 ± 11 U/l
CPK [21, 25]: 701 ± 129 U/l
Creatinine [21, 25]: 0.029 ± 0.011 mg/L
LDH [21, 25]: 6091 ± 836 U/l
AP [21, 26]: 83 ± 19 U/l
CPK [21, 26]: 691 ± 103 U/l
Creatinine [21, 26]: 0.028 ± 0.008 mg/L
LDH [21, 26]: 6241 ± 936 U/l
Structure (SMILES): NS(=O)(=O)OCCCNS(=O)(=O)[C@@H]1O[C@H](CO)[C@@H](O)[C@H](O)[C@H]1O [Compound 1]
reduction in viability for individual compounds [8]: ≤ 31 ± 6%
reduction in viability for individual compounds [9]: ≤ 28 ± 10%
reduction in viability for individual compounds [10]: ≤ 38 ± 7%
reduction in viability for individual compounds [11]: ≤ 33 ± 12%
reduction in viability for individual compounds [12]: ≤ 36 ± 11%
reduction in viability for individual compounds [13]: ≤ 28 ± 7%
reduction in viability for individual compounds [14]: ≤ 30 ± 10%
reduction in viability for individual compounds [15]: ≤ 27 ± 8%
reduction in viability for individual compounds [16]: ≤ 32 ± 7%
cytotoxic effect in not-transformed cells [17]: did not exert any cytotoxic effect
reduction of Pgp ATPase activity [1]: ≥ 1.47 fold
ALT [21, 23]: 38 ± 12 U/l
AST [21, 23]: 239 ± 72 U/l
ALT [21, 24]: 45 ± 7 U/l
AST [21, 24]: 261 ± 71 U/l
ALT [21, 25]: 44 ±11 U/l
AST [21, 25]: 221 ± 71 U/l
ALT [21, 26]: 33 ± 15 U/l
AST [21, 26]: 182 ± 44 U/l
effect on doxorubicin intracellular accumulation [18]: lost the ability to further increase the doxorubicin intracellular accumulation
reduction in tumor volume at day 18 ([22]; 19 ng/kg intratumorally): 21%
reduction in tumor volume at day 18 ([22]; 1900 ng/kg intratumorally): 47%
effect on tumor growth when used alone ([22]; 19 and 1900 ng/kg intratumorally, alone): no effect on tumor growth

Structure (SMILES): NS(=O)(=O)c1ccc(CNS(=O)(=O)[C@@H]2O[C@H](CO)[C@H](O)[C@H](O)[C@H]2O)cc1 [Compound 6]
Ki [4]: 87 nM
Ki [5]: 7.8 nM
Ki [7]: 8.7 nM

Structure (SMILES): CCC(=O)OC1O[C@H](COS(N)(=O)=O)[C@@H](OC(=O)CC)[C@H](OC(=O)CC)[C@H]1OC(=O)CC (stereo partly drawn) [Compound 3]
Ki [6]: 77 nM

Structure (SMILES): NS(=O)(=O)c1ccc(CNS(=O)(=O)[C@@H]2O[C@H](CO)[C@@H](O)[C@H](O)[C@H]2O)cc1 [Compound 5]
Ki [4]: 102 nM
Ki [5]: 9.1 nM
Ki [7]: 8.3 nM
